Data published in patent publication EP1285920A1, “C10 Ester sustituted taxanes as antitumor agents” (Florida State University Research Foundation, Inc., priority 2001, dated 2003).
Read-outs that look alike come from different tables or passages of the source. Marks after values point to notes of the source that are not given here.

Columns and labels:
[1] = test system: blood cell populations; experiment: Effect of oral treatment on blood cell populations and body weight in the MX-1 study (Example 22); assay type: in vivo, nu/nu mice; design: neutrophil reduction: concentration or dose not given beside the values; conditions: for % Reduction (Monocytes) / % Reduction (Neutrophils): Day 4, vs vehicle; for % Reduction (Monocytes) / % Reduction (Neutrophils) / Monocytes (K/µL) / Neutrophils (K/µL) / Maximum Weight Loss (Day): mg/kg: 0499 80, 0550 73, 0611 113, 0748 200; for Monocytes (K/µL) / Neutrophils (K/µL): Day 4; for Monocytes (K/µL) / Neutrophils (K/µL) / Maximum Weight Loss (Day): single oral bolus Day 1; for Maximum Weight Loss (Day): body weight, day of maximum in parentheses in the cell
Description: (§1) Antitumor compounds were administered orally in a study to investigate whether such a formulation is efficacious against the MX-1 human breast carcinoma xenograft. Antitumor compound 0499 was formulated as Solution 1 in Example 6. Antitumor compound 0550 was formulated as Solution 2 in Example 6. Antitumor compound 0611 was formulated as Solution 3 in Example 6. Antitumor compound 0748 was formulated as Solution 4 in Example 6. Other antitumor compounds were formulated similarly. The compounds were prepared in a vehicle of 90% saline, 5% Cremophor, and 5% ethanol.
(§2) Female nu/nu mice (11-12 weeks of age; implanted subcutaneously with 1 mm^3 MX-1 human breast carcinoma fragments in the flank) were sorted into one control group (n=10) and four treatment (n=6) groups (group mean tumor size of 47-49 mg). The study was terminated on Day 63.
In addition to survival and tumor regression responses, the effect of treatment on blood cell populations was assessed. The major effect of these antitumor compounds on blood cell populations was a marked reduction in the neutrophil cell number. As well, monocyte depletion correlated fairly well with neutrophil reduction for each antitumor compound. […] There was a correlation between antitumor activity and reduced neutrophil count. In general, toxicity (as determined by neutrophil depletion) and weight loss correlated with efficacy. […] Importantly, the toxicities observed with the very efficacious antitumor compounds were manageable and reversible; neutrophil count and body weight rebounded from their low points in just a few days. Table 20 summarizes the weight reduction, neutrophil and monocyte measurements on Day 4, with tumor weight reduction calculated at Day 18: Table 20

[2] = test system: MX-1 human breast carcinoma; assay type: in vivo; conditions: for complete tumor regressions: six mice per group (0611: five evaluable), ended Day 63; for Toxic Deaths / Complete Response / Partial Response / Stable Disease: number of mice, mg/kg: 0499 80, 0550 73, 0611 113, 0748 200, 6 mice/group; for Complete Response / Partial Response / Stable Disease: Day 63; for % Reduction (Weight): po, 432 h
Description: as §1, §2

[3] = test system: HCT116; experiment: In Vitro cytotoxicity measured by the cell colony formation assay; assay type: cell-based, human; conditions: Homo sapiens, HCT-116; read-out: IN VITRO ID 50 HCT116
Method in brief: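 Four hundred cells per dish in McCoy's 5a medium with 10% FBS were allowed to attach for 5 h at 37 °C. They were then exposed to compound for 72 h at 37 °C, added as a 10× stock made fresh in medium. After HBSS rinsing and refeeding, colonies were counted after 7 days.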

[4] = test system: MX-1 carcinoma; conditions: number of 6 mice; i.v. qd x 1 at MTD, Day 60; mg/kg: Taxol 36 (split dose), 0503 72.6, 0536 49, 0663 159, 0670 123, 0687 159, 0706 108, 0908 159, 0947 76.9, 0951 72.6, 0983 67.4, 0999 49, 1003 49, 1011 108
Method in brief: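 Mice dosed with a single i.v. bolus (qd x 1) at each compound's MTD, formulated in 5% ethanol, 5% Cremophor, 90% isotonic saline. Study ended Day 60; complete response = tumor not palpable at study end.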

[5] = test system: HCT116 carcinoma; conditions: number of 5 mice; i.v. qd x 1 at MTD, Day 60; mg/kg: Taxol 36 (split doses), 0503 72.6, 0536 49, 0663 159, 0670 123, 0687 159, 0706 108, 0908 159, 0947 76.9, 0951 72.6, 0983 72.6, 0999 49, 1003 49, 1011 108
Method in brief: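 Mice bearing HCT116 tumours received a single i.v. maximum tolerated dose per compound, formulated in 5% ethanol, 5% Cremophor, 90% isotonic saline. Study ended on Day 60; complete response meant no palpable tumour at study end.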

[6] = test system: A2780 ovarian carcinoma; conditions: number of mice; i.v. qd x 1 at estimated MTD (Taxol 24 mg/kg, Taxotere 70 mg/kg, 0983 72.6 mg/kg); 5 mice/group (Taxotere 6)
Description: Dosing was initiated on Day 1. […] Taxotere was given i.v. on a qd x 1 schedule at a dose of 70 mg/kg. […] The study was terminated on Day 60. Treatment groups are detailed in Table 7.

[7] = test system: SKMES lung carcinoma; experiment: In vivo evaluation of oral administration against SKMES human lung carcinoma xenograft (Example 21); conditions: number of mice, single oral bolus Day 1, mg/kg: Taxol 40, 0687 228, 0503 73, 6 mice/group
Description: Female Nu/Nu mice (6-8 weeks of age; implanted with 1 mm^3 SKMES lung carcinoma fragments in the flank) were sorted into treatment groups of six mice each. […] Treatments were administered as a single oral bolus on Day 1, and the study was terminated on Day 60.
A complete response is obtained if the tumor is not palpable at the end of the study.
The total response rate is defined as the percentage of evaluable animals (excluding deaths due to procedure or toxicity) in a group that experience complete or partial responses at the termination of the study.

[8] = test system: Panc-1 pancreatic carcinoma; experiment: In vivo evaluation against Panc-1 human pancreatic carcinoma (Example 17); conditions: i.v. qd x 1
[9] = test system: DU145 prostate carcinoma; conditions: number of 5 mice, Day 91
From the text: Dosing was initiated on Day 1. […] Treatment groups are detailed in Table 5.

[10] = test system: VM46 colon carcinoma
Description: Dosing was initiated on Day 1. […] Taxotere was given i.v. at a dose of 70 mg/kg on a qd x 1 schedule.

[11] = test system: A375 melanoma
Description: Dosing was initiated on Day 1. […] Taxotere was given i.v. on a qd x 1 schedule at a dose of 70 mg/kg. […] The study was terminated on Day 60. Treatment groups are detailed in Table 9.

[12] = test system: Panc-1 pancreatic carcinoma
Description: The dosing volume was 0.3 ml per 20 g mouse.
Female NCr-nude mice were implanted subcutaneously with 1 mm^3 Panc-1 pancreatic carcinoma fragments in the flank and sorted into treatment groups of six mice each. […] Dosing was initiated on Day 1. The antitumor compounds were given i.v. at an estimated maximum tolerated dose (MTD) appropriate for each agent on a qd x 1 schedule (single administration of compound). […] The vehicle was administered i.v. to control mice in Group 1 on the qd x 1 schedule.
The mean days of survival is the number of days after which a neoplasm reached a size of 1.5 g and the animal was euthanized. A complete response is obtained if the tumor shrinks to a size smaller than its size on Day 1 of the study.

[13] = number of mice, mg/kg: Taxol 36, 0499 77, 0503 72.6, 0670 123.1, 0706 107.6, 0838 72.6, 0854 76.9, 6 mice/group, Day 60
[14] = number of mice, i.v. qd x 1, mg/kg: Taxol 24, 0499 77, 0503 72.6, 0670 123.1, 0706 107.6, 0838 72.6, 0854 46.6, 0983 67.4, Taxotere 70, 6 mice/group, Day 64
[15] = number of mice, i.v. qd x 1, mg/kg: Taxol 24, 0854 46.6, 1011 107.6, 6 mice/group, Day 63

SMILES: CCC(=O)O[C@H]1C(=O)[C@@]2(C)[C@H]([C@H](OC(=O)c3ccccc3)[C@]3(O)C[C@H](OC(=O)[C@H](O)[C@@H](NC(=O)OC(C)(C)C)c4cccs4)C(C)=C1C3(C)C)[C@]1(OC(C)=O)CO[C@@H]1C[C@@H]2O [Compound 0550]
- % Reduction (Monocytes) ([1]; single oral bolus): 80.2%
- % Reduction (Neutrophils) ([1]; single oral bolus): 95.9%
- Monocytes (K/µL) [1]: 0.019 K/µL
- Neutrophils (K/µL) [1]: 0.037 K/µL
- neutrophil reduction ([1]; MX-1 study, single oral bolus, day 4): 95.9%
- body weight loss ([1]; MX-1 study, single oral bolus, day 5): 16.1%
- Maximum Weight Loss (Day) [1]: -16.1% (5)
- complete tumor regressions ([2]; MX-1, single oral bolus Day 1): six
- Toxic Deaths ([2]; single oral bolus Day 1): 0
- Complete Response ([2]; single oral bolus Day 1): 6
- Partial Response ([2]; single oral bolus Day 1): 0
- Stable Disease ([2]; single oral bolus Day 1): 0
- % Reduction (Weight) [2]: 100.0%
- IC50 [3]: < 10 nM

SMILES: CCC(=O)O[C@H]1C(=O)[C@@]2(C)[C@H]([C@H](OC(=O)c3ccccc3)[C@]3(O)C[C@H](OC(=O)[C@H](O)[C@@H](NC(=O)OC(C)(C)C)c4ccccc4)C(C)=C1C3(C)C)[C@]1(OC(C)=O)CO[C@@H]1C[C@@H]2O [Compound 0611]
- % Reduction (Monocytes) ([1]; single oral bolus): 56.3%
- % Reduction (Neutrophils) ([1]; single oral bolus): 93.7%
- Monocytes (K/µL) [1]: 0.042 K/µL
- Neutrophils (K/µL) [1]: 0.057 K/µL
- Maximum Weight Loss (Day) [1]: -15.0% (5)
- complete tumor regressions ([2]; MX-1, single oral bolus Day 1): four
- Toxic Deaths ([2]; single oral bolus Day 1): 1^a
- Complete Response ([2]; single oral bolus Day 1): 4
- Partial Response ([2]; single oral bolus Day 1): 0
- Stable Disease ([2]; single oral bolus Day 1): 0
- % Reduction (Weight) [2]: 100.0%
- IC50 [3]: < 10 nM

SMILES: CCC(=O)O[C@H]1C(=O)[C@@]2(C)[C@H]([C@H](OC(=O)c3ccccc3)[C@]3(O)C[C@H](OC(=O)[C@H](O)[C@@H](NC(=O)c4ccccc4)c4cccs4)C(C)=C1C3(C)C)[C@]1(OC(C)=O)CO[C@@H]1C[C@@H]2O [Compound 0687]
- Toxic Deaths [4]: 1
- Toxic Deaths [5]: 0
- Toxic Deaths [6]: 0
- Toxic Deaths [7]: 1^a
- Complete Response ([7]; Day 60): 4
- Partial Response ([7]; Day 60): 1
- Stable Disease ([7]; Day 60): 0

SMILES: CCC(=O)O[C@H]1C(=O)[C@@]2(C)[C@H]([C@H](OC(=O)c3ccccc3)[C@]3(O)C[C@H](OC(=O)[C@H](O)[C@@H](NC(=O)c4ccccc4)c4ccccc4)C(C)=C1C3(C)C)[C@]1(OC(C)=O)CO[C@@H]1C[C@@H]2O [Compound 0748]
- % Reduction (Neutrophils) ([1]; single oral bolus): 70.5%
- Monocytes (K/µL) [1]: 0.117 K/µL
- Neutrophils (K/µL) [1]: 0.269 K/µL
- Maximum Weight Loss (Day) [1]: -4.6% (5)
- antitumor activity ([2]; MX-1, single oral bolus Day 1): significant survival extensions compared to vehicle control mice
- Toxic Deaths ([2]; single oral bolus Day 1): 0
- Complete Response ([2]; single oral bolus Day 1): 0
- Partial Response ([2]; single oral bolus Day 1): 0
- Stable Disease ([2]; single oral bolus Day 1): 1
- % Reduction (Weight) [2]: 69.1%
- IC50 [3]: < 10 nM

SMILES: CC(=O)O[C@@]12CO[C@@H]1C[C@H](O)[C@@]1(C)C(=O)[C@H](OC(=O)C3CC3)C3=C(C)[C@@H](OC(=O)[C@H](O)[C@@H](NC(=O)OC(C)(C)C)c4cccs4)C[C@@](O)([C@@H](OC(=O)c4ccccc4)[C@H]21)C3(C)C [Compound 0854]
- Toxic Deaths ([8]; Panc-1 (Example 17), six mice per group): six
- Toxic Deaths ([8]; number of mice, mg/kg: Taxol 36, 0499 77, 0503 72.6, 0670 123.1, 0706 107.6, 0838 72.6, 0854 76.9, 6 mice/group): 6
- Complete Response [8, 13]: 0
- Partial Response [8, 13]: 2
- Stable Disease [8, 13]: 0
- Mean Score ([8]; tumor scoring system, mg/kg: Taxol 36, 0499 77, 0503 72.6, 0670 123.1, 0706 107.6, 0838 72.6, 0854 76.9, 6 mice/group): 0 ± 0
- Toxic Deaths ([9]; i.v. qd x 1 at estimated MTD (Taxol 24 mg/kg as two split doses)): 5
- Survivors ([9]; i.v. qd x 1 at estimated MTD (Taxol 24 mg/kg split)): 0
- response rate ([10]; VM46, i.v. qd x 1 at estimated MTD): 16.7-40%
- Mean Score ([10]; iv): 4.7 ± 1.6
- MDS (n) ([10]; iv, 1536 h): 52.9 ± 6.6 (2) days
- maximal mean weight loss ([10]; mouse, in vivo, iv): under 12%
- Toxic Deaths ([10]; number of mice, i.v. qd x 1, mg/kg: Taxol 24, 0499 77, 0503 72.6, 0670 123.1, 0706 107.6, 0838 72.6, 0854 46.6, 0983 67.4, Taxotere 70, 6 mice/group): 1
- Complete Response [10, 14]: 0
- Partial Response [10, 14]: 2
- Stable Disease [10, 14]: 1
- Survivors [10, 14]: 3
- mean group weight losses ([11]; A375, i.v. qd x 1): 20 - 30%
- Toxic Deaths ([11]; number of mice, i.v. qd x 1 at estimated MTD (Taxol 24 mg/kg, Taxotere 70 mg/kg), 6 mice/group (Taxotere 7)): 6
- Survivors ([11]; number of mice, i.v. qd x 1 at estimated MTD (Taxol 24 mg/kg, Taxotere 70 mg/kg), 6 mice/group (Taxotere 7), Day 60): 0
- IC50 [3]: < 1 nM
- Mean Score ([12]; iv): 0 ± 0
- Toxic Deaths ([12]; number of mice, i.v. qd x 1, mg/kg: Taxol 24, 0854 46.6, 1011 107.6, 6 mice/group): 6
- Complete Response [12, 15]: 0
- Partial Response [12, 15]: 0
- Stable Disease [12, 15]: 0
